Measurements taken from patent US20150024934A1, “CONTROLLING CHARCOAL ROT WITH FLUTRIAFOL” (CHEMINOVA A/S, priority 2013, published 2015).

Experiments:
charcoal rot = experiment: Strawberry field trial for control of charcoal rot (infected plants, yield); format: in vivo; details: applied either surface incorporated or via buried drip
Macrophomina phaseolina = experiment: Mycelial colony growth on flutriafol-amended PDA; format: cell-based; details: 1x; for Dia (mm) 1 day: untreated 28.2; for Dia (mm) 3 days / Dia (mm) 5 days / Dia (mm) 7 days: untreated 40
Protocol: Inhibition of Macrophomina phaseolina (charcoal rot) was tested in the following example: The flutriafol composition used in the example was TOPGUARD (125 g/L flutriafol SC), a commercially available product.
Each pathogen was grown out on fresh potato dextrose agar (commercial PDA), assessed and used to seed 2× autoclaved rice for inoculums development. At 7-10 days, two infested rice grains with the pathogen was placed at equal distances on flutriafol-amended PDA and incubated at 27-29° C. Mycelial colony diameter from each rice grain was measured at 1, 3, 5 and 7 days from grain placement. The included tables and data sets illustrate the differences in mycelia growth in response to various concentrations of the fungicide.

OC(Cn1cncn1)(c1ccc(F)cc1)c1ccccc1F (racemic) [flutriafol, (RS)-2,4′-difluoro-α-(1H-1,2,4-triazol-1-ylmethyl)benzhydryl alcohol]
effect on charcoal rot (charcoal rot): significantly reduced charcoal rot | Dia (mm) 1 day (Macrophomina phaseolina; 0.01 ppm): 25.5 mm | Dia (mm) 3 days (Macrophomina phaseolina; 0.01 ppm): 40 mm | Dia (mm) 5 days (Macrophomina phaseolina; 0.01 ppm): 40 mm | Dia (mm) 7 days (Macrophomina phaseolina; 0.01 ppm): 40 mm | Dia (mm) 1 day (Macrophomina phaseolina; 0.1 ppm): 22.3 mm | Dia (mm) 3 days (Macrophomina phaseolina; 0.1 ppm): 40 mm | Dia (mm) 5 days (Macrophomina phaseolina; 0.1 ppm): 40 mm | Dia (mm) 7 days (Macrophomina phaseolina; 0.1 ppm): 40 mm | Dia (mm) 1 day (Macrophomina phaseolina; 1 ppm): 13.9 mm | Dia (mm) 3 days (Macrophomina phaseolina; 1 ppm): 38.6 mm | Dia (mm) 5 days (Macrophomina phaseolina; 1 ppm): 40 mm | Dia (mm) 7 days (Macrophomina phaseolina; 1 ppm): 40 mm | Dia (mm) 1 day (Macrophomina phaseolina; 10 ppm): 0 mm | Dia (mm) 3 days (Macrophomina phaseolina; 10 ppm): 3.5 mm | Dia (mm) 5 days (Macrophomina phaseolina; 10 ppm): 3.5 mm | Dia (mm) 7 days (Macrophomina phaseolina; 10 ppm): 5.1 mm | Dia (mm) 1 day (Macrophomina phaseolina; 100 ppm): 0 mm | Dia (mm) 3 days (Macrophomina phaseolina; 100 ppm): 0 mm | Dia (mm) 5 days (Macrophomina phaseolina; 100 ppm): 0 mm | Dia (mm) 7 days (Macrophomina phaseolina; 100 ppm): 0 mm | Dia (mm) 1 day (Macrophomina phaseolina; 250 ppm, mycelial colony diameter, TOPGUARD 125 g/L SC in PDA): 0 mm | Dia (mm) 3 days (Macrophomina phaseolina; 250 ppm): 0 mm | Dia (mm) 5 days (Macrophomina phaseolina; 250 ppm): 0 mm | Dia (mm) 7 days (Macrophomina phaseolina; 250 ppm): 0 mm
